From PubChem BioAssay (NCI)
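The compound was tested at five concentrations on cells cultured in 96-well plates, with a 48-hour exposure period. GI50: concentration for 50% inhibition of growth. TGI is the concentration that stops growth completely.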

Legend:
Assay in all cases: inhibition of tumour cell growth, NCI panel, 48 h
HCT-15 colon = test system: HCT-15 colon
ACHN renal = test system: ACHN renal
SK-MEL-28 melanoma = test system: SK-MEL-28 melanoma
UACC-62 melanoma = test system: UACC-62 melanoma
HOP-92 NSCLC = test system: HOP-92 NSCLC
MALME-3M melanoma = test system: MALME-3M melanoma
U251 CNS = test system: U251 CNS
SK-MEL-5 melanoma = test system: SK-MEL-5 melanoma
K-562 leukemia = test system: K-562 leukemia
UACC-257 melanoma = test system: UACC-257 melanoma

Structure (SMILES)	TGI (HCT-15 colon) [µM]	TGI (ACHN renal) [µM]	TGI (SK-MEL-28 melanoma) [µM]	TGI (UACC-62 melanoma) [µM]	TGI (HOP-92 NSCLC) [µM]	TGI (MALME-3M melanoma) [µM]	TGI (U251 CNS) [µM]	TGI (SK-MEL-5 melanoma) [µM]	TGI (K-562 leukemia) [µM]	TGI (UACC-257 melanoma) [µM]	GI50 (HCT-15 colon) [µM]	GI50 (ACHN renal) [µM]	GI50 (SK-MEL-28 melanoma) [µM]	GI50 (UACC-62 melanoma) [µM]	GI50 (HOP-92 NSCLC) [µM]	GI50 (SK-MEL-5 melanoma) [µM]	GI50 (UACC-257 melanoma) [µM]	GI50 (MALME-3M melanoma) [µM]	GI50 (U251 CNS) [µM]	GI50 (K-562 leukemia) [µM]
COc1ccc2c(c1)CCC(CN1CCN(CCOC(c3ccc(F)cc3)c3ccc(F)cc3)CC1)C2O (stereo not drawn)	22.3	19.8	30	24.2	26.7	28	26.1	20.1	45	28.1										
C/C1=N\NC(=O)c2ccccc2C(=O)N/N=C(\C)c2cccc1n2.O=[N+]([O-])[O-].[Zn+2]	> 100	> 100	> 100	> 100		> 100	> 100	> 100	> 100	> 100										
CCN=C=NCCCN(C)C	> 100	> 100	> 100	> 100	> 100	> 100	> 100	> 100	> 100	> 100										
COc1ccc2[nH]c3c([N+](=O)[O-])ccc(Cl)c3c(=O)c2c1	40.8	29.3	98.1	34.5	29.7	40.4	> 64.1	55.2	13.2	16.5										
Nc1ccc(OCC(O)N2C(=O)c3ccccc3C2=O)cc1 (stereo not drawn)	> 100	> 100	> 100	> 100		> 100	> 100	> 100	> 100	> 100										
CC(C)(C)C1(c2ccc(C3(c4ccccc4)Oc4ccccc4S3)[nH]2)Oc2ccccc2S1 (stereo not drawn)	> 100	> 100		> 100	> 100	> 100	> 100	> 100	> 100	> 100										
Nc1cc(S(=O)(=O)O)cc2cc(S(=O)(=O)O)c(N=Nc3ccc(-c4ccc(N=Nc5c(S(=O)(=O)O)cc6cc(S(=O)(=O)O)cc(N)c6c5O)cc4)cc3)c(O)c12	> 100		> 100		> 100	> 100	> 100	> 100	> 100	> 100										
COC1/C=C\OC2(C)Oc3c(C)c(O)c4c(O)c(c(/C=N\OCCCc5ccccc5)c(O)c4c3C2=O)NC(=O)/C(C)=C\C=C/C(C)C(O)C(C)C(O)C(C)C(OC(C)=O)C1C (stereo not drawn)	11	7.39	4.65	10.1	6.26	12	16	3.55	15.4	18.6										
Cc1ccc(P(c2ccc(C)cc2)c2ccc(C)cc2)cc1	> 100	> 100	56	52.3	20.8	42.4	43	33.1	> 100	59.3										
C=C(CN(C)C)C(=O)c1ccc(C)cc1C	12.5	19.3	20.4	31.5	10.4	20.2	47.8	28.8	9.74	24.8										
O=Nc1ccc(O)c2ncccc12	12.9	14.5	17.3	2.34	11.9	25.6	14.5	19.7	> 100	19.4										
C=C1C(=O)CCC1C(=O)O (stereo not drawn)	> 100	> 100	> 100	> 100		> 100	> 100	> 100	> 100	> 100										
C[C@H](C(=O)N[C@@H](Cc1ccc(-c2ccccc2)cc1)C(=O)NC1CC(C)(C)N(C)C(C)(C)C1)c1ccc(-c2ccccc2)c(F)c1	2.94	3.05	3.18	3.63	2.7			2.94		3.8	1.53	1.62	1.67	1.92	1.26	1.59	2.12			
COc1ccc(-c2nn(-c3ccc(NC(=O)Nc4ccc(Cl)c(Cl)c4)cc3)cc2-c2ccncc2)cc1Cl	> 100	> 100	68.2	7.33	5.72	8.47	> 100	5.96	> 100	11.6	1.7	2.27	2.7	2.1	1.82	2.26	3.14	2.47	1.36	1.43
